Measurements from patent US7402576B2, “Phosphinic acid analogs of glutamate” (Givaudan SA, priority 2002, dated 2008).

Key:
[1] = target: T1, enzyme of Corynebacterium striatum Ax 20 (SEQ ID No. 1) (Corynebacterium striatum, UniProt Q8GGD4); test: Enzyme inhibition, cellular extract, Nα-lauroyl-L-glutamine cleavage, fluorescamine readout; assay type: biochemical, Corynebacterium striatum Ax 20 (DSM 14267); conditions: substrate Nα-lauroyl-L-glutamine 50 μM, 10 min preincubation at 37° C., 15 min incubation, pH 7
T1 construct: endogenous in cells; host or cells: Corynebacterium striatum Ax 20 (DSM 14267), wild-type cell extract
T1 sequence (Q8GGD4 2-400): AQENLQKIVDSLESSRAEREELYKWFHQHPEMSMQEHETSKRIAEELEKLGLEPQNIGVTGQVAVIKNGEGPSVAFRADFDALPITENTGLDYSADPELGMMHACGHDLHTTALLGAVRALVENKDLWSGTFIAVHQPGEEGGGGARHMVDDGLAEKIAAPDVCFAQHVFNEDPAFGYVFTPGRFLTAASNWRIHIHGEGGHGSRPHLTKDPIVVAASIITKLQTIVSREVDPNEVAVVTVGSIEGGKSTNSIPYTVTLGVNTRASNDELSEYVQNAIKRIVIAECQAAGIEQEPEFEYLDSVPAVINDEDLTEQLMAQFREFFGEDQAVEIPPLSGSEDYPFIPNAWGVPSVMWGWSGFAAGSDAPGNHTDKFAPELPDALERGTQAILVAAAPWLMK
Experimental: Cellular Extracts of Corynebacterium striatum Ax 20 (DSM 14267) are prepared by mechanical disruption and subsequent centrifugation.
The extract (50 μl ml corresponding to 0.2 ml initial cell culture) is added to 50 μl of Buffer A (Phosphate Buffer, pH 7). Various concentrations of the compounds of the present invention are added in a volume of 40 μl, and after 10 min preincubation at 37° C., the reaction is and amended with 10 μl of substrate (Nα-lauroyl-L-glutamine, final concentration 50 μM). The samples are incubated for 15 min and then the reaction is stopped by adding 75 μl of Fluorescamine (2.5 mM dissolved in Acetonitrile). The fluorescence resulting from derivatization of the released glutamine with fluorescamine is determined at an excitation wavelength of 381 nm and an emission wavelength of 470 nm.
By comparing the samples containing compounds of the present invention with control samples with enzyme and substrate only, the inhibition (%) is calculated. Alternatively, the same assay is made with a recombinantly formed enzyme produced with a strain containing an expression vector comprising a nucleic acid sequence encoding for the enzyme.

Corynebacterium Ax20 = test: Inhibition of the enzymatic activity in living cells, release of lauric acid by GC; assay type: cell-based, Corynebacterium striatum Ax 20; conditions: 0.2 μM compound, stationary phase living cells, substrate Nα-lauroyl-L-glutamine 1 mM, 1 h
Experimental: The uptake of the compounds in bacterial cells and the inhibition of the enzyme contained therein may be measured using an assay based on stationary-phase living cells. Thus, cells may be incubated along with inhibitory compound or compounds, and the substrate (i.e. the material found in sweat, which when cleaved by the enzyme forms the malodorous acids), and the release of acids may be measured at various inhibitor concentrations. By comparing IC50 values obtained with the living cells with the IC50 values obtained with the isolated enzyme, the ease of penetration of the compounds into the bacterial cells can be assessed.
In order to evaluate enzyme activity in intact cells, stationary phase living cells of Ax20 are harvested and resuspended in Buffer A to an optical density at 600 nm of 0.25. Inhibitory compounds are added at various concentrations, and after a preincubation of 15 min, the substrate (Nα-lauroyl-L-glutamine, 1 mM final concentration) is added. The samples are incubated for 1 h and then extracted with MTBE and HCl and analysed for released lauric acid using capillary GC. By comparing the samples containing compounds of the present invention with control samples with bacteria and substrate only, the inhibition (%) is calculated. By comparing the inhibitory capacity of the compounds on the isolated enzyme with the values obtained using intact cells, the relative uptake of the compounds by the cells can be assessed. From Table 2 it appears, that compounds of the present invention can cross the bacterial cell wall and cytoplasmatic membrane, and thus can have inhibitory activity in living cells.

Molecule	IC50 [1] [nM]	% inhibition of release of fatty acids by Corynebacterium Ax20 at a concentration of 0.2 μM (Corynebacterium Ax20) [%]
4-Carbamoyl-2-(hydroxy-naphthalen-2-ylmethyl-phosphinoylmethyl)-butyric acid [Compound 5g]	138	–
4-Carbamoyl-2-[hydroxy-(4-isopropyl-cyclohex-1-enylmethyl)-phosphinoylmethyl]-butyric acid [Compound 5z]	32	–
4-Carbamoyl-2-[hydroxy-(3-phenyl-propyl)-phosphinoylmethyl]-butyric acid [Compound 5t]	125	–
CCCCCCCCP(=O)(O)CC(CCC(N)=O)C(=O)O (stereo not drawn) [Compound 5y, 4-Carbamoyl-2-(hydroxy-octyl-phosphinoylmethyl)-butyric acid]	17.9	64.9
CC(CCc1ccccc1)CCP(=O)(O)CC(CCC(N)=O)C(=O)O (stereo not drawn) [Compound 5c, 4-Carbamoyl-2-[hydroxy-(3-methyl-5-phenyl-pentyl)-phosphinoylmethyl]-butyric acid]	11.5	70.5
CCCCCCCCCCP(=O)(O)CC(CCC(N)=O)C(=O)O (stereo not drawn) [Compound 5a, 4-Carbamoyl-2-(decyl-hydroxy-phosphinoylmethyl)-butyric acid]	30.3	60.9
4-Carbamoyl-2-[hydroxy-(4-phenyl-butyl)-phosphinoylmethyl]-butyric acid [Compound 5x]	40	–
CC(C)CCCC(C)CCP(=O)(O)CC(CCC(N)=O)C(=O)O (stereo not drawn) [Compound 5n, 4-Carbamoyl-2-[(3,7-dimethyl-octyl)-hydroxy-phosphinoylmethyl]-butyric acid]	9	69.5
